# Measured values reported in patent publication US10172789B2, “Compositions for transdermal delivery of mTOR inhibitors” (PALVELLA THERAPEUTICS LLC, priority 2013, dated 2019).
# Entries after “also recorded” stand apart in the source; their conditions may differ.
# Key:
# [1] = Rapamycin distribution in human explant skin after topical application (reverse-phase HPLC); assay type: in vitro ADME
# Description: Rapamycin extracted from the indicated tissue slices was assayed by reverse-phase HPLC. The tissue surface was cleaned with isopropyl alcohol prior to sectioning to remove any residual surface material.
# To test delivery of rapamycin from a formulation similar to that disclosed in Example 2, the formulation was applied to explant human skin.
# mouse skin = assay: Gross examination of topically-treated mouse ears, flanks and footpads; assay type: in vivo; settings: flanks and footpads vs untreated or placebo-treated skin, data not shown
# [2] = test system: ribosomal protein S6 phosphorylation; assay: S6 phosphorylation (P-S6) western blot in human HaCaT keratinocytes; assay type: cell-based
# Description: (§1) FIGS. 1C-F show immunochemistry […] images of frozen skin sections taken from mice treated with the same creams as FIG. 1B.
# (§2) To evaluate whether benzyl alcohol has deleterious effects on rapamycin activity, rapamycin was dissolved in benzyl alcohol (and compared with other solvents as indicated) and evaluated for its ability to block phosphorylation of ribosomal protein S6, a commonly used method to assess mTOR pathway inhibition by rapamycin, in human HaCaT and patient-derived keratinocytes. […] In the assays described below, a P-S6-specific antibody recognizes only the phosphorylated form of S6 whereas the other antibody recognizes total S6 protein (i.e., both P-S6 and unphosphorylated S6). […] The inhibition of phospho-S6 was observed by both western blot analysis of protein extracts from treated mouse skin (FIG. 1B) and by immunohistochemistry (IHC) of frozen sections prepared from treated mouse skin (FIG. 1C-F).
# Next-generation mTOR inhibitors have similar effects on ribosomal protein S6-phosphoylation (p-S6) when compared to rapamycin. […] The p-S6 levels were quantified and the ratio of p-S6 to total S6 (total S6 data not shown) was graphed in FIG. 2B in similar fashion to FIG. 1.
# [3] = test system: ribosomal protein S6 phosphorylation; assay: S6 phosphorylation in mouse skin after topical formulation (western blot, IHC); assay type: in vivo; settings: mouse skin including ears, topical formulation with rapamycin dissolved in benzyl alcohol; western blot and IHC
# Description: as §1, §2
structure (smiles),measurement,setting,value
CO[C@H]1C[C@@H]2CC[C@@H](C)[C@@](O)(O2)C(=O)C(=O)N2CCCC[C@H]2C(=O)O[C@H]([C@H](C)C[C@@H]2CC[C@@H](O)[C@H](OC)C2)CC(=O)[C@H](C)/C=C(\C)[C@@H](O)[C@@H](OC)C(=O)[C@H](C)C[C@H](C)/C=C/C=C/C=C/1C [rapamycin],net deposition of rapamycin within the skin,[1]; 16 hours after application of rapamycin formulation,> 4 % of the applied dose
same,rapamycin concentrations within the epidermis (and dermis),"[1]; 16 hours after topical application, formulation similar to Example 2, compared with level needed to inhibit S6 phosphorylation in cell culture",many fold higher than required for in vitro activity; also recorded: well above the IC50 value
same,skin irritation on gross examination,mouse skin,little or no irritation
same,effect on total S6 protein levels,[2]; rapamycin dissolved in benzyl alcohol or other solvents,little or no effect
same,inhibition of ribosomal protein S6 phosphorylation (P-S6),"[2]; rapamycin dissolved in benzyl alcohol, DMSO, ethanol or diglycol, FIG. 1A",efficiently inhibits
same,S6 phosphorylation relative to total S6 protein,[3],inhibited
